Assay results published in US9650339B2, “Inhibitors of histone demethylases” (Gilead Sciences, Inc., priority 2013, dated 2017).

Assays:
[1] = biological target: T1, KDM5B (PLU-1) (Homo sapiens, UniProt Q9UGL1); test: Histone lysine demethylase AlphaLISA assay, KDM5B; assay type: biochemical; settings: read-out: KDM5B HDME Inhibition IC50
T1 sequence (Q9UGL1 1-809): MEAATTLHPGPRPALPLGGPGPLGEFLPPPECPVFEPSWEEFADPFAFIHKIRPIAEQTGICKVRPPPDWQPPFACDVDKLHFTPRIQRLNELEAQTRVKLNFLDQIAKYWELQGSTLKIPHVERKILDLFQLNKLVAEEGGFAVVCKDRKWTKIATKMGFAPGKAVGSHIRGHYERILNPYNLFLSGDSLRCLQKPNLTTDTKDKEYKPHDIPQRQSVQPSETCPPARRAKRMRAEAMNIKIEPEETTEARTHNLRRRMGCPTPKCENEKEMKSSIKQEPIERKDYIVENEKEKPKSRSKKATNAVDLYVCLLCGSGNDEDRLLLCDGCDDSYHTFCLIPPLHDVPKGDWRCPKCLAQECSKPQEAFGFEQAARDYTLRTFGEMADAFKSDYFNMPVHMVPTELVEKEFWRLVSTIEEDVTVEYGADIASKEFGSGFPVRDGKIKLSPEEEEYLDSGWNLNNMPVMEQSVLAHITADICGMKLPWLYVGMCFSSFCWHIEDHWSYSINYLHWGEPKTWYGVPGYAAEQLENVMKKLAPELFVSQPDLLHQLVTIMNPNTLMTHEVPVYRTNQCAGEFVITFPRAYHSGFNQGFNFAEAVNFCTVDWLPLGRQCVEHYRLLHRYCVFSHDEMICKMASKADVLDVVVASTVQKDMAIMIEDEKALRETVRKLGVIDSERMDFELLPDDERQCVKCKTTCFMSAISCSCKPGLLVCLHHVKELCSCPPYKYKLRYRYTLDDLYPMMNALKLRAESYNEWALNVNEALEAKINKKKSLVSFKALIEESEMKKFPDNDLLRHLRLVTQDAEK
In short: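 Steps: enzyme equilibrated 10 min in buffer; compounds in 3% DMSO solution added, 10 min; substrate mix added (peptide, 25 μM L-Asc, 10 μM α-KG), room temperature; acceptor beads, then streptavidin donor beads, dark incubations; plate read.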

[2] = biological target: T2, KDM4C (Homo sapiens, UniProt Q9H3R0); test: Histone lysine demethylase immunofluorescence assay, U2OS cells transfected with KDM4C; assay type: cell-based; settings: U2OS cells transfected with pCMVHA KDM4C; mark detected H3K9me3; 20 hours
T2 construct: Full length; host or cells: U2OS
T2 sequence (Q9H3R0 1-1056): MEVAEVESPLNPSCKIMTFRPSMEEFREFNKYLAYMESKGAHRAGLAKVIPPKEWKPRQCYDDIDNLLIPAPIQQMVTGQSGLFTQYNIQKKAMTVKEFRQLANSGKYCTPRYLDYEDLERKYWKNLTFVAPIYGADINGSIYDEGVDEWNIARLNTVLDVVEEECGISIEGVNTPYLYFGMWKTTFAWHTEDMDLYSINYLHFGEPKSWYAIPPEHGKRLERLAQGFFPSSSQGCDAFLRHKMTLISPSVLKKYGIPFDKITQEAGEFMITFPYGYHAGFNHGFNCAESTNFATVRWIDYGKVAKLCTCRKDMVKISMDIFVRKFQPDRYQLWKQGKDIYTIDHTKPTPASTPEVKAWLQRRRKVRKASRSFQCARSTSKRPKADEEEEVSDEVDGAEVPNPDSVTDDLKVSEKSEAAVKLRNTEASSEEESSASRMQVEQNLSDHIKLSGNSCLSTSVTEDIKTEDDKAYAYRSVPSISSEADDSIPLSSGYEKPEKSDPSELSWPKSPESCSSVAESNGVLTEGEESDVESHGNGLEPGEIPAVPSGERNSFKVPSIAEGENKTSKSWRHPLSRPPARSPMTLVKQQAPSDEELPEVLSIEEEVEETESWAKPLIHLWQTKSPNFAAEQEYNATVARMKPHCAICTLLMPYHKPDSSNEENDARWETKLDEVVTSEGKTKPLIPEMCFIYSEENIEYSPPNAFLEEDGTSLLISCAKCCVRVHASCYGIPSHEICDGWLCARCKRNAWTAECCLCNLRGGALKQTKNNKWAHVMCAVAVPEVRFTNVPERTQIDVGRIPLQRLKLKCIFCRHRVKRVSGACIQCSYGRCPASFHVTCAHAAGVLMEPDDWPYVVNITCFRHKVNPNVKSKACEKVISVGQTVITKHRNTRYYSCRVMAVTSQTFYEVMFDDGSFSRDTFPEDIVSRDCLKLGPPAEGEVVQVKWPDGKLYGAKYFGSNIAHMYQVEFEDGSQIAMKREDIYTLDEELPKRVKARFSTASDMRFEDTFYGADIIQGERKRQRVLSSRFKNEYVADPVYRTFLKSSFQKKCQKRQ
In short: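 U2OS cells were transiently transfected with HA-tagged demethylase and reseeded after 6 h into compound-containing DMEM/10% FBS for 20 h. Cells were fixed in formaldehyde and immunostained for HA and the relevant histone methyl mark, then imaged. IC50 is based on mean mark staining in HA+ transfected cells.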

Structure (SMILES)	IC50 [1] [µM]	IC50 [2] [µM]
CN(C)CCCCNCc1cc(CN)ccn1 [Compound 2, [2-({[4-(dimethylamino)butyl]-amino}methyl)pyridin-4-yl]methanamine]	> 2.5	0.25 to 2.5
CN(C)CCNCc1ccnc(CNCCCN(C)Cc2ccccc2)c1 [Compound 18, benzyl[3-({[4-({[2-(dimethylamino)ethyl]-amino}methyl)pyridin-2-yl]methyl}-amino)propyl]-methylamine]	0.25 to 2.5	–
COCCNCc1ccnc(CNCCCN(C)Cc2ccccc2)c1 [Compound 19, benzyl(3-{[(4-{[(2-methoxyethyl)amino]-methyl}pyridin-2-yl)methyl]amino}-propyl)methylamine]	0.25 to 2.5	> 2.5
COc1ccccc1CN1CCC(NC(=O)CNCc2cc(CNC3CC3)ccn2)CC1 [Compound 20, 2-[({4-[(cyclopropylamino)-methyl]pyridin-2-yl}methyl)amino]-N-{1-[(2-methoxyphenyl)methyl]-piperidin-4-yl}acetamide]	< 0.25	> 2.5
CCN(CCN(C)C)C(=O)CN(Cc1cc(CNC(=O)C(F)(F)F)ccn1)C(=O)C(F)(F)F [Compound 26, N-[(2-{[N-({[2-(dimethylamino)ethyl]-(ethyl)carbamoyl}-methyl)-2,2,2-trifluoroacetamido]-methyl}pyridin-4-yl)methyl]-2,2,2-trifIuoroacetamide]	> 2.5	0.25 to 2.5
COC(=O)CNCc1cc(/C=N/C2CC2)ccn1 [Compound 59, methyl 2-[({4-[N-cyclopropyl-carboximidoyl]pyridin-2-yl}methyl)amino]-acetate]	< 0.25	> 2.5
CCN(CC)CCCCNCc1cc(C2NCCCN2C)ccn1 (centres unmarked) [Compound 68, [4-(diethylamino)butyl]({[4-(1-methyl-1,3-diazinan-2-yl)pyridin-2-yl]methyl})amine]	< 0.25	0.25 to 2.5
O=Cc1ccnc(CNCCCCN(Cc2ccccc2)C2CC2)c1 [Compound 109, 2-[({4-[benzyl-(cyclopropyl)amino]-butyl}amino)methyl]-pyridine-4-carbaldehyde]	< 0.25	> 2.5
O=Cc1ccnc(CNCC(=O)NC2CCN(Cc3ccccc3)C2)c1 (centres unmarked) [Compound 113, N-(1-benzylpyrrolidin-3-yl)-2-{[(4-formylpyridin-2-yl)methyl]amino}-acetamide]	< 0.25	> 2.5
